Measurements published in PMC6477744, “Mebendazole-induced M1 polarisation of THP-1 macrophages may involve DYRK1B inhibition” (BMC Research Notes, 2019).

Molecular target: Dual specificity tyrosine-phosphorylation-regulated kinase 1B (DYRK1B) (Homo sapiens, UniProt Q9Y463)
Assay: DiscoverX competition binding assay (DNA-tagged kinase, 11-point Kd); also enzyme inhibition IC50 […] at […] ATP

Chain of Dual specificity tyrosine-phosphorylation-regulated kinase 1B (DYRK1B) (Q9Y463 whole entry): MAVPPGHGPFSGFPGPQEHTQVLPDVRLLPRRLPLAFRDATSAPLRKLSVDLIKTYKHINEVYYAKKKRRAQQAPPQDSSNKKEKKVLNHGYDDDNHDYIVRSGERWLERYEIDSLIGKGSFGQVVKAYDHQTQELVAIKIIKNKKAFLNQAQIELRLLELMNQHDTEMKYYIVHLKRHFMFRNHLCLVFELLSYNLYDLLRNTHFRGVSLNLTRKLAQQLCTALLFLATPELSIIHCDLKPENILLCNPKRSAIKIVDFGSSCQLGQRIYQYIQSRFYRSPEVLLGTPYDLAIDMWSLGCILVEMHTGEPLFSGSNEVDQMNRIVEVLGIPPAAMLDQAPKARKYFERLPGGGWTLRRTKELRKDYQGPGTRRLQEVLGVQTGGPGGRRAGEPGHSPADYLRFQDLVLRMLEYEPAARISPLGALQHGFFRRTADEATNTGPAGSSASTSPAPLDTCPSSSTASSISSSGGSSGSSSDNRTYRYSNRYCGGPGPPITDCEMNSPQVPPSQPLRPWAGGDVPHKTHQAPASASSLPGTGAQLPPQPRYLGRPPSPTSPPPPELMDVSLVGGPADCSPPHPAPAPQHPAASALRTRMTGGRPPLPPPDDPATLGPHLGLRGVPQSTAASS

COC(=O)Nc1nc2ccc(C(=O)c3ccccc3)cc2[nH]1 [MBZ, mebendazole] showed a Kd of 7 nM.
